We go through seven compounds from ChEMBL document CHEMBL1221370, “Steroidal saponins from fresh stems of Dracaena angustifolia” (J Nat Prod, 2010).

In brackets after ≈: the same amount, converted by molar mass. Activity calls are given as the source filed them. No cut-off for these calls is given here.

Common to all, as to assay type: functional, organism-based
Experiment [1] deals with Candida albicans. Description: Antifungal activity against Candida albicans ATCC 90028 by broth dilution method. On the technique in general: Broth dilution looks for growth in wells or tubes with falling amounts of substance.
The test system of experiment [2] is Pichia kudriavzevii. Description: Antifungal activity against Candida krusei ATCC 6258 by broth dilution method.
Experiment [3] relates to Nakaseomyces glabratus. Description: Antifungal activity against Candida glabrata ATCC 90030 by broth dilution method.
Experiment [4] has as its system Cryptococcus neoformans. Put plainly: Antifungal activity against Cryptococcus neoformans ATCC 90113 by broth dilution method.
The subject of experiment [5] is Aspergillus fumigatus. Put plainly: Antifungal activity against Aspergillus fumigatus ATCC 90906 by broth dilution method.

Turning to `C=C1CO[C@]2(C[C@H]1O)OC1C[C@H]3[C@@H]4CC=C5C[C@@H](O)C[C@@H](O[C@@H]6OC[C@H](OS(=O)(=O)O)[C@H](O)[C@H]6O[C@@H]6O[C@@H](C)[C@H](O)[C@@H](O)[C@H]6O)[C@]5(C)[C@H]4CC[C@]3(C)[C@H]1[C@@H]2C` (stereo partly specified), the result in experiment [1], in experiment [2], in experiment [3], in experiment [4] and in experiment [5] was inactive.

With `C=C1CC[C@@]2(OC1)OC1C[C@H]3[C@@H]4[C@@H](O)C=C5C[C@@H](O)C[C@@H](O[C@@H]6OC[C@H](OS(=O)(=O)O)[C@H](O)[C@H]6O[C@@H]6O[C@@H](C)[C@H](O)[C@@H](O)[C@H]6O)[C@]5(C)[C@H]4CC[C@]3(C)[C@H]1[C@@H]2C` (stereo partly specified), the result in experiment [1], in experiment [2], in experiment [3], in experiment [4] and in experiment [5] was inactive.

By IC50 is commonly meant the concentration at which inhibition is half-maximal. The low end stands for higher potency, the high end for lower potency. For `C[C@H]1CC[C@@]2(OC1)OC1C[C@H]3[C@@H]4CC=C5C[C@@H](O)C[C@@H](O[C@@H]6OC[C@H](O)[C@H](O[C@@H]7OC[C@@H](O)[C@H](O)[C@H]7O)[C@H]6O)[C@]5(C)[C@H]4CC[C@]3(C)[C@H]1[C@@H]2C` (stereo partly specified) [ANGUDRACANOSIDE F], the outcome in experiment [1], in experiment [2], in experiment [3] and in experiment [5] was inactive. In experiment [4], this compound gave an IC50 of 9.5 µg/mL (≈ 13.7 µM).

As to `C[C@@H]1[C@H](O)[C@@H](C)/C=C/C=C/C=C/C=C/C=C/C=C/C=C/[C@H](O[C@@H]2O[C@H](C)[C@@H](O)[C@H](N)[C@@H]2O)C[C@@H]2O[C@](O)(C[C@@H](O)C[C@@H](O)[C@H](O)CC[C@@H](O)C[C@@H](O)CC(=O)O[C@H]1C)C[C@H](O)[C@H]2C(=O)O` [AMPHOTERICIN B], in experiment [4], the IC50 amounted to 2.5 µg/mL (≈ 2.71 µM).

As for `C=C1CC[C@@]2(OC1)OC1C[C@H]3[C@@H]4CC=C5C[C@@H](O)C[C@@H](O[C@@H]6OC[C@H](OS(=O)(=O)O)[C@H](O)[C@H]6O[C@@H]6O[C@@H](C)[C@H](O)[C@@H](O)[C@H]6O)[C@]5(C)[C@H]4CC[C@]3(C)[C@H]1[C@@H]2C` (stereo partly specified), the outcome in experiment [1], in experiment [2], in experiment [3], in experiment [4] and in experiment [5] was inactive.

Consider `C[C@H]1CC[C@@]2(OC1)OC1C[C@H]3[C@@H]4CC=C5C[C@@H](O)C[C@@H](O[C@@H]6OC[C@H](O)[C@H](O)[C@H]6O[C@@H]6O[C@@H](C)[C@H](O)[C@@H](O)[C@H]6O)[C@]5(C)[C@H]4CC[C@]3(C)[C@H]1[C@@H]2C` (stereo partly specified), for which the outcome in experiment [1], in experiment [2], in experiment [3] and in experiment [5] was inactive. The same compound showed a concentration for half-maximal inhibition (IC50) in experiment [4] of 20 µg/mL (≈ 28.2 µM).

Regarding `C[C@H]1CC[C@@]2(OC1)OC1C[C@H]3[C@@H]4C(=O)C=C5C[C@@H](O)C[C@@H](O[C@@H]6OC[C@H](OS(=O)(=O)O)[C@H](O)[C@H]6O[C@@H]6O[C@@H](C)[C@H](O)[C@@H](O)[C@H]6O)[C@]5(C)[C@H]4CC[C@]3(C)[C@H]1[C@@H]2C` (stereo partly specified), the outcome in experiment [1], in experiment [2], in experiment [3], in experiment [4] and in experiment [5] was inactive.
